From ChEMBL document CHEMBL1201862, “PubChem BioAssay data set” (2004)
Calls of active or inactive are those of the source.

Tests used:
[1] = Luminescence Cell-Based Dose Retest to Confirm Inhibitors of Cancer Stem Cells. [Related pubchem assays (depositor defined):AID2717, AID2721]; format: functional; conditions: Homo sapiens
[2] = Fluorescence-based cell-based high throughput dose response assay for inhibitors of the interaction of nucleotide-binding oligomerization domain containing 2 (NOD2) and the receptor-interacting serine-threonine kinase 2 (RIPK2).; format: functional; conditions: Homo sapiens
[3] = P. falciparum late gametocyte killing, dose response, luminescence (AID 1117278); format: functional, cell-based;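 also: gametocytes exposed to compound for 24 hours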
[4] = Jurkat T cell cytotoxicity, dose response, cytotoxicity control for P. falciparum gametocyte viability project, luminescence (AID 1117277); format: functional, cell-based;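 also: potency reflects loss of cellular ATP meaning fewer viable cells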
[5] = target: T1, Sentrin-specific protease 8 (Homo sapiens, UniProt Q96LD8); format: functional
T1 sequence (Q96LD8 whole entry): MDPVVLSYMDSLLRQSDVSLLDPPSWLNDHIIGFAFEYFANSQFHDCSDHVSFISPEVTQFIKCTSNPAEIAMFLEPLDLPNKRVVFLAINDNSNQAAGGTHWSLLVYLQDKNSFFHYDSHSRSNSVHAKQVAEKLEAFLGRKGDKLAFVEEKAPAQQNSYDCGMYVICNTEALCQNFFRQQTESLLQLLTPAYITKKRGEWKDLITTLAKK

[6] = target: T1, Sentrin-specific protease 8; format: functional; remark: listed apart in the source
[7] = target: NAD-dependent protein deacylase sirtuin-5, mitochondrial (Homo sapiens, UniProt Q9NXA8); experiment: SIRT5 desuccinylase inhibitors, dose response, biochemical, fluorescence imaging, cherry-pick, set 5 (AID 720591);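 also: desuccinylation of succinyl peptide AMC substrate read as fluorescence after trypsin release; potency of inhibitors that lower fluorescence and may act on trypsin instead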
Sequence of NAD-dependent protein deacylase sirtuin-5, mitochondrial (Q9NXA8 whole entry): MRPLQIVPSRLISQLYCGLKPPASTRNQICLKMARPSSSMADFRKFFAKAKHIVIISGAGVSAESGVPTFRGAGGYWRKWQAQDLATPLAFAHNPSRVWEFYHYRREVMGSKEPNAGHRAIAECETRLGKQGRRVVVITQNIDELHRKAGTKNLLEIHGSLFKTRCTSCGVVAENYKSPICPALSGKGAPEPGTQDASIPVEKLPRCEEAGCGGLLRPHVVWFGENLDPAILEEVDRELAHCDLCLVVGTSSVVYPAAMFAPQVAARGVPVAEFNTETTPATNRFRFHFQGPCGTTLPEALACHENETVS

Cysteine protease ATG4B = target: T2, Cysteine protease ATG4B (Homo sapiens, UniProt Q9Y4P1); format: functional;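 also: Fluorescence-based dose-response confirmation assay measuring inhibition of ATG4B activity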
T2 sequence (Q9Y4P1 whole entry): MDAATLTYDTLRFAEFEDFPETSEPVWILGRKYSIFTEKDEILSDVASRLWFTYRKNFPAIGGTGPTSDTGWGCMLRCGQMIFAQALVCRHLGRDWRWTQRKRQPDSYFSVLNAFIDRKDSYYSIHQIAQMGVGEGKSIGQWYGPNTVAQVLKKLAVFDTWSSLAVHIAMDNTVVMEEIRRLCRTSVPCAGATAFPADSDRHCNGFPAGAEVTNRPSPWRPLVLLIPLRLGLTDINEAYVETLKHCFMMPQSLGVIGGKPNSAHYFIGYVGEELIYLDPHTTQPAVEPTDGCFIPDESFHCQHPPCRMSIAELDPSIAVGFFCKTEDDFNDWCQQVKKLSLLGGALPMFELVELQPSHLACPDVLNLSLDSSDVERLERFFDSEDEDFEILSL

[8] = target: Heat shock protein HSP 90-alpha (Homo sapiens, UniProt P07900); format: functional, organism-based
Phospholipase A2 = Phospholipase A2 (Homo sapiens, UniProt P04054); format: functional;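 also: confirmatory dose-response counterscreen on phospholipase A2, testing hits that came from an ultra-high-throughput screen for ATG4B inhibitors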
Sequence of Phospholipase A2 (P04054 whole entry): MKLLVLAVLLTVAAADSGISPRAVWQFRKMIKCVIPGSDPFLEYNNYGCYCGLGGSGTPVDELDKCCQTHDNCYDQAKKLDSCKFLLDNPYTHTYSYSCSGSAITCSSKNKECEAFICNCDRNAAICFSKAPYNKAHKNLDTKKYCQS

[9] = target: T3, Mannose-6-phosphate isomerase (Homo sapiens, UniProt P34949); experiment: human PMI inhibitors, high substrate, primary screen, biochemical, fluorescence intensity, high mannose 6-phosphate (AID 1220)
T3 sequence (P34949 whole entry): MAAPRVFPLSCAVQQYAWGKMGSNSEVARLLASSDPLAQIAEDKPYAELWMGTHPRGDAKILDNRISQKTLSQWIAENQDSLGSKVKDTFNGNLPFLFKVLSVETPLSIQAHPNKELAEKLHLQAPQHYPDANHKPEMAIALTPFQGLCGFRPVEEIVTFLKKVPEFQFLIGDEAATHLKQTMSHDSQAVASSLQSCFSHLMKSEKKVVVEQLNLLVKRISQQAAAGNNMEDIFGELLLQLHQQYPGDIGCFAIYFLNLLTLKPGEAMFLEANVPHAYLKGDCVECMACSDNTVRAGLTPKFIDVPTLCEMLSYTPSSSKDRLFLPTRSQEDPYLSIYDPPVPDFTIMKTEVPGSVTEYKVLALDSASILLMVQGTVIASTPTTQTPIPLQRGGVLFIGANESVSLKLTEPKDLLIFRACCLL

[10] = target: T4, Rac GTPase-activating protein 1 (Homo sapiens, UniProt Q9H0H5); experiment: MgcRacGAP GTPase-activating activity inhibitors, confirmation, biochemical, ADP Hunter fluorescence, primary and confirmatory (AID 624330); format: functional
T4 sequence (Q9H0H5 whole entry): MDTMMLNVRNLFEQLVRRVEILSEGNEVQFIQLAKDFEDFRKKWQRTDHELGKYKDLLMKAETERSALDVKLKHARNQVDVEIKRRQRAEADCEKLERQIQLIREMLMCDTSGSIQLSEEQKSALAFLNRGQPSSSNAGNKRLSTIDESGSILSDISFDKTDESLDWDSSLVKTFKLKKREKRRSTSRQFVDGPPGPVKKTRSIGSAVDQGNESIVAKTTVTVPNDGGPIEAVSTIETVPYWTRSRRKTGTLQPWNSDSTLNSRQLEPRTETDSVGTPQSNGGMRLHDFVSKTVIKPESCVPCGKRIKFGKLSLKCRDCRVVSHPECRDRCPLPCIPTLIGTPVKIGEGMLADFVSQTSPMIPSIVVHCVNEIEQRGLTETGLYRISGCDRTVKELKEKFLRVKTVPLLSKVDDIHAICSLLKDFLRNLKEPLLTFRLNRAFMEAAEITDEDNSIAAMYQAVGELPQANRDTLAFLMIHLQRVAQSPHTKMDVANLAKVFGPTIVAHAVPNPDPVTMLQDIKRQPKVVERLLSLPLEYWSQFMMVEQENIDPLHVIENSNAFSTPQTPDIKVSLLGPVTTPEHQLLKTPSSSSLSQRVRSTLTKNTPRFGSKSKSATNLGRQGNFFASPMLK

HEK293 [11] = experiment: inhibitors of LMP1-driven NF-kB reporter, dose response, cell-based, HEK293, luciferase, cherry-pick (AID 588343); format: functional; conditions: Homo sapiens
HEK293 [12] = experiment: cells; format: functional, cell-based; conditions: Homo sapiens
[13] = target: T5, Nuclear receptor subfamily 0 group B member 1 (Homo sapiens, UniProt P51843); experiment: Luminescence-based cell-based high throughput dose response assay for inhibitors of the orphan nuclear receptor subfamily 0, group B, member 1 (DAX1; NR0B1). [Related pubchem assays (depositor defined):AID504766, AID504790]; format: functional
T5 sequence (P51843 whole entry): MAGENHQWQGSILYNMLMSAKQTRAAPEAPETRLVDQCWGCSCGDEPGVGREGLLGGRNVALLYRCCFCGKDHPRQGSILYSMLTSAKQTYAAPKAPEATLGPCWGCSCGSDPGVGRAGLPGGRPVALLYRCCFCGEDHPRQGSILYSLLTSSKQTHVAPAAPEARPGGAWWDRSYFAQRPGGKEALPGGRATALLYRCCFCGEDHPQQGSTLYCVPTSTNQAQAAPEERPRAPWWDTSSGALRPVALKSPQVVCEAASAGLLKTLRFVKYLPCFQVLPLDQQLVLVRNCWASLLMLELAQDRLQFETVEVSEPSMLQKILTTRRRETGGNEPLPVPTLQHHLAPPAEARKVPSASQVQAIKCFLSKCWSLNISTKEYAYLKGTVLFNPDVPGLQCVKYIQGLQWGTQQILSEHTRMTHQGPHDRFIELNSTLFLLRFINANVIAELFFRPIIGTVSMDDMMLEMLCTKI

Vero = experiment: Vero cell toxicity, dose response, cytotoxicity control, plate reader, cherry-pick samples (AID 687020); format: functional, cell-based; conditions: Chlorocebus sabaeus
[14] = Shn3 3'UTR reporter inhibitors, dose response, cell-based, Clone20 osteoblasts, firefly luciferase, cherry-picked (AID 624132); format: functional;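 also: firefly luciferase luminescence from reporter carrying the Shn3 3'UTR in osteoblasts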
[15] = HepG2 cell cytotoxicity, dose response, cytotoxicity control for Shn3 inhibitor project, CellTiter-Glo, cherry-picked (AID 624134); format: functional, cell-based
[16] = control 3'UTR Renilla luciferase suppression, dose response, counter-screen for Shn3 inhibitor project, cell-based, Clone20-Shn3RL, cherry-picked (AID 624133); format: functional
Paired box protein Pax-8 = Paired box protein Pax-8 (Homo sapiens, UniProt Q06710); experiment: inhibitors of PAX8-driven TPO luciferase reporter, dose response, RMG-I cells, cherry-pick (AID 687027); format: functional, cell-based;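 also: luciferase reporter driven by Pax8 target thyroperoxidase promoter measured by SteadyGlo luminescence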
Sequence of Paired box protein Pax-8 (Q06710 whole entry): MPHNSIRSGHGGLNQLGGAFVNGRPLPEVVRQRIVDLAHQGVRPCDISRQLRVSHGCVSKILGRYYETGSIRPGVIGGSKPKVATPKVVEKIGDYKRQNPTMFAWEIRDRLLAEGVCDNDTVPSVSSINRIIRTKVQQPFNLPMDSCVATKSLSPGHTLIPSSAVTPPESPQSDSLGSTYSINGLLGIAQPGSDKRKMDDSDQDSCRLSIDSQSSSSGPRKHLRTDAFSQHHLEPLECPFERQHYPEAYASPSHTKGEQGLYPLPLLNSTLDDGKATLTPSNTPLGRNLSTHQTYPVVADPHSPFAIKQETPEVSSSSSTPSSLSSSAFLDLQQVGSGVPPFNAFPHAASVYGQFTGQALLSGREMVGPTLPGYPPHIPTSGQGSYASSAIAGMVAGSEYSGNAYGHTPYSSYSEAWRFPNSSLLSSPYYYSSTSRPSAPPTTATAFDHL

[17] = HeLa cell cytotoxicity, dose response, cytotoxicity control for MgcRacGAP inhibitor project (AID 624300); format: functional
[18] = A549 cell cytotoxicity, dose response, cytotoxicity control, plate reader, cherry-pick, antagonist series (AID 743412); format: functional, cell-based
[19] = HepG2 cell cytotoxicity, dose response, cytotoxicity control, plate reader, cherry-pick, antagonist series (AID 743416); format: functional, cell-based
[20] = LGR2 antagonists, dose response, cell-based, HEK293, CRE-luciferase reporter, cherry pick, set 2 (AID 743343); format: functional;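 also: transfected cells were stimulated with diluted bursicon conditioned medium after compound addition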
[21] = MC4R antagonists, dose response, counter-screen for LGR2 antagonist project, cell-based, plate reader, cherry pick (AID 743444); format: functional;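 also: transfected HEK 293 cells stimulated with alpha-MSH peptide; potency of inhibitors of the alpha-MSH evoked signal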
[22] = HeLa 2N DNA content increase, dose response, cell-based, IC50 (AID 1117349); format: functional
[23] = HeLa 4N DNA content increase, dose response, cell-based, IC50 (AID 1117351); format: functional

O=C(CN(c1cccc(C(F)(F)F)c1)S(=O)(=O)c1ccc(Cl)c([N+](=O)[O-])c1)NCc1ccc(F)cc1
AC50 [1]: 1.81 µM (active)
IC50 [2]: 5.86 µM (active)

SC1=NC[C@H](c2ccccc2)N1CCCCC1CCCCC1
IC50 [3]: > 109 µM (inactive)
IC50 [4]: 79.3 µM (inactive)

CCN(CC)CC(=O)Nc1ccc2c(c1)N(C(=O)CN(CC)CC)c1ccccc1CC2
IC50 [5]: 19.1 µM (active)
IC50 [6]: 15.4 µM (active)

COc1cccc(-n2c(SCC(N)=O)nnc2-c2ccco2)c1
AC50 [7]: 22.1 µM (active)

Oc1ccc(N=Nc2nc(-c3ccccc3)c(-c3ccccc3)[nH]2)cc1
AC50 [1]: 3.9 µM (active)
IC50 (Cysteine protease ATG4B): 9.13 µM (active)
AC50 [8]: 4.75 µM (active)
IC50 (Phospholipase A2): 6.36 µM (active)

COc1ccc2c(c1)-c1nc(N)sc1CC2
IC50 [9]: 23.8 µM (active)
IC50 [10]: 29.5 µM (active)

CC(NC(=O)CCc1nnc(CCCc2ccccc2)o1)c1ccccc1 (stereo not drawn)
IC50 [3]: > 109 µM (inactive)
IC50 [4]: > 83.3 µM (inactive)

Cc1cc(C)nc(N=C(Nc2ccccc2Br)NS(=O)(=O)Cc2ccccc2)n1
AC50 (HEK293 [11]): 33.5 µM (active)

O=C(Nc1ccccc1)C(Cl)C(=O)c1ccccc1 (stereo not drawn)
AC50 [8]: 0.786 µM (active)

COc1ccc(S(=O)(=O)NCc2ccc(C(=O)NCc3cccnc3)cc2)cc1
IC50 [3]: > 109 µM (inactive)
IC50 [4]: > 83.3 µM (inactive)

O=C(CCc1nc2ccccc2[nH]1)N1CCc2ccccc2C1
IC50 [5]: > 100 µM (inactive)
IC50 [6]: 17.6 µM (active)

CCCCC(=O)/N=C(\N)Nc1nc2ccccc2o1
IC50 (HEK293 [12]): > 67.6 µM (inactive)
IC50 [13]: > 67.6 µM (inactive)

CC(C)(C)OC(=O)NCCCCCNC(=O)c1[nH]cnc1C(=O)N1CCc2ccccc2C1
IC50 [5]: > 100 µM (inactive)
IC50 [6]: 14.9 µM (active)

Cc1cccc(COC(=O)CCCNC(=O)c2ccc(Cl)cc2)c1
AC50 [8]: 8.04 µM (active)

O=C1c2ccccc2[C@@H]2C[C@@H](O)[C@H](Nc3cccc4ccccc34)CCN12
AC50 (Vero): 29.8 µM (active)

O=C(O)c1ccc(CNCc2cccc(Cl)c2)cc1
AC50 [7]: > 30 µM (inactive)

O=C(NN=Cc1ccc(N(CCCl)CCCl)cc1Cl)c1cccnc1
AC50 (HEK293 [11]): 1.26 µM (active)

CC(CNC(=O)Cn1ccc(NC(=O)OCc2ccccc2)nc1=O)c1ccccc1 (stereo not drawn)
AC50 (Vero): 24.6 µM (active)

CC(OC(=O)c1ccc2c(=O)n3c(nc2c1)CCC3)C(=O)NC1CCCCC1C (stereo not drawn)
AC50 (Vero): 31.1 µM (active)

CCOc1ccc(NC(=O)COC(=O)Cc2ccsc2)cc1
AC50 [7]: 22.3 µM (active)

C=C1C(=O)[C@]23C[C@H]1CCC2[C@]1(C)CCC[C@@](C)(C(=O)O)C1C[C@@H]3O (stereo partly drawn)
AC50 [14]: 1.2 µM (active)
AC50 [15]: > 70 µM (inactive)
AC50 [16]: 8.47 µM (active)
IC50 [2]: 7.03 µM (active)
AC50 (Paired box protein Pax-8): 1.77 µM (active)

O=c1c(-c2ccccc2)c[nH]n1-c1cccc([N+](=O)[O-])c1
IC50 (HEK293 [12]): > 67.5 µM (inactive)
IC50 [13]: > 67.5 µM (inactive)
CC50 [17]: 100 µM (active)
IC50 [10]: 48.4 µM (active)

C[C@H]1CN([C@@H](C)CO)C(=O)c2cccc(NC(=O)NC3CCCCC3)c2O[C@@H]1CN(C)Cc1ccc(C(F)(F)F)cc1
AC50 [18]: 19.2 µM (active)
AC50 [19]: 26.4 µM (active)
AC50 [20]: 46.4 µM (active)
AC50 [21]: 17.1 µM (active)

CC(C)=CCC/C(C)=C/CC/C(C)=C/C(=O)OCC(=O)[C@@]1(O)CC[C@H]2[C@@H]3CCC4=CC(=O)C=C[C@]4(C)[C@H]3[C@@H](O)C[C@@]21C
IC50 [22]: > 10 µM (inactive)
IC50 [23]: > 10 µM (inactive)

O=C(CNc1cccc2ccccc12)N/N=C/c1ccc(OC(=O)/C=C/c2ccco2)cc1
IC50 [9]: > 50 µM (not active)
